For the first assay, the target named is Nav 1.7 (Homo sapiens (Human), UniProt Q15858). Nature of the assay: Nav 1.7 in vitro PX assay (PatchXpress whole cell voltage clamp).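 Note: holding potential set for 20 to 50% inactivation, sodium current evoked by a 20 ms step to −10 mV, peak current inhibition read after compound exposure, 3–5 cells per concentration.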 The format is cell-based. As to conditions: HEK 293 cells stably transfected with human Nav1.7; PatchXpress; partially inactivated state.
Nav 1.7, sequence (Q15858 whole entry): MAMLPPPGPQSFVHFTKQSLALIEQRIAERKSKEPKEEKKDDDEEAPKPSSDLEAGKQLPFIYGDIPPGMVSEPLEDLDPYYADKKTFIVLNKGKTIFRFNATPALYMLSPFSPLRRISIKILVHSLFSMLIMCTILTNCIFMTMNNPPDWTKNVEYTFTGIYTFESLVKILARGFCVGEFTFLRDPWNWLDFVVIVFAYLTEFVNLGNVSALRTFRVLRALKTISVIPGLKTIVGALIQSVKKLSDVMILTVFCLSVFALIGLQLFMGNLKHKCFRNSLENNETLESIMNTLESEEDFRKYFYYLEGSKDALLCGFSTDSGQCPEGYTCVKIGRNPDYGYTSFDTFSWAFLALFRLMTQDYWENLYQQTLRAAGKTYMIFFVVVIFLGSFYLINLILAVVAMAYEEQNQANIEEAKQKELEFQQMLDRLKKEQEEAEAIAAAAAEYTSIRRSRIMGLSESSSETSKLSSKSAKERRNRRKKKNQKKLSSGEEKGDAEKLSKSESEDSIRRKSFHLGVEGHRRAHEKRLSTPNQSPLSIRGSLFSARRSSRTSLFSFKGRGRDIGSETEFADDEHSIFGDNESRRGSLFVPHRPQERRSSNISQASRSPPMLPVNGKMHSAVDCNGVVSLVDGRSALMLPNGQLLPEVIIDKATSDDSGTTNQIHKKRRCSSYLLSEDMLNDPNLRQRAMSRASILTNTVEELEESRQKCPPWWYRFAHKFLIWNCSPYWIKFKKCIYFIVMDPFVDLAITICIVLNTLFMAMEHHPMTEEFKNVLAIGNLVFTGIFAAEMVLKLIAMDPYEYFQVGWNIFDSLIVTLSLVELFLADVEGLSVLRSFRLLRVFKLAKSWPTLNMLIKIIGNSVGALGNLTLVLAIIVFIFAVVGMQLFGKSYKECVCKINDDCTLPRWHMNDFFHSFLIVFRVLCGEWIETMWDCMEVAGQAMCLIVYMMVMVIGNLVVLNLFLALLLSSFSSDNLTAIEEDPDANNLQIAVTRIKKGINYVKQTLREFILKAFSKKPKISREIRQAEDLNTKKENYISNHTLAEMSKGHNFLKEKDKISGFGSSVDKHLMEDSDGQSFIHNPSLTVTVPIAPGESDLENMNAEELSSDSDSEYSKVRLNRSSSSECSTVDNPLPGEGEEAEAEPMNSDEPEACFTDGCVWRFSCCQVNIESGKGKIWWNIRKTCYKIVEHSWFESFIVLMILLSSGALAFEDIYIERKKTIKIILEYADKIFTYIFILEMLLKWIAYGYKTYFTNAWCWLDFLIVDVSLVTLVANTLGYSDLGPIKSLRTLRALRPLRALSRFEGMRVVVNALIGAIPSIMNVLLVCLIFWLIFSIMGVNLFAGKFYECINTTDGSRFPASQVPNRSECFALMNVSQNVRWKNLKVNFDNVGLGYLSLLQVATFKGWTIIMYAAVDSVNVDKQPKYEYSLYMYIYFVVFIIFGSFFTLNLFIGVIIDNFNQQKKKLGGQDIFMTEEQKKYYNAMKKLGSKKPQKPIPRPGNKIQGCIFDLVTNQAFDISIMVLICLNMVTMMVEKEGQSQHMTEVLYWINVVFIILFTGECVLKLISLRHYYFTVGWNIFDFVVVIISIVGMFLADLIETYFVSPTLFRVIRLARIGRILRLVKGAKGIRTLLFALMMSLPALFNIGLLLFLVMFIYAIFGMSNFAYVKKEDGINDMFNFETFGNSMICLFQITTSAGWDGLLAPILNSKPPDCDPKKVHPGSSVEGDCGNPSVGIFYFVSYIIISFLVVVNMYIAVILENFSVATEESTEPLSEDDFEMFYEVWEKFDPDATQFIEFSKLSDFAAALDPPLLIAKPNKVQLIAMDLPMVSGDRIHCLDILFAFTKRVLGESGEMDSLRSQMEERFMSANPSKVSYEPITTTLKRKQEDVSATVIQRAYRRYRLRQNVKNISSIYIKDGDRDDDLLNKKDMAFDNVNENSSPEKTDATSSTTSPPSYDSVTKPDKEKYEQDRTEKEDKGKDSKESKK
For orientation: IC50 means the midpoint of a concentration-inhibition curve. The low end stands for greater potency in that assay, the high end for weaker potency in that assay. As for `COc1cc(-c2cccc(Cl)c2)c(F)cc1-c1ncnc2cc(S(=O)(=O)Nc3ccsn3)ccc12` [Example 377, 4-(3′-Chloro-2-fluoro-5-methoxy-4-biphenylyl)-N-3-isothiazolyl-7-quinazolinesulfonamide], the IC50 turned out to be 90 nM.

On to `COc1cc(-c2cccc(F)c2)c(Cl)cc1-c1c(C)nnc2cc(S(=O)(=O)Nc3ccon3)ccc12` (atropisomer, axis not shown; (P)) [Example 442, (P)-4-(2-chloro-3′-fluoro-5-methoxy-[1,1′-biphenyl]-4-yl)-N-(isoxazol-3-yl)-3-methylcinnoline-7-sulfonamide], for which the IC50 amounted to 251 nM.

`COc1cc(-c2cccc(F)c2)c(Cl)cc1-c1ncnc2cc(S(=O)(=O)Nc3ccsn3)ccc12` [Example 361, 4-(2-chloro-3′-fluoro-5-methoxy-[1,1′-biphenyl]-4-yl)-N-(isothiazol-3-yl)quinazoline-7-sulfonamide] showed an IC50 of 369 nM.

Take `COc1cc(-c2ccc(F)c(Cl)c2)c(C)cc1-c1ncnc2cc(S(=O)(=O)Nc3ncccn3)ccc12` [Example 345, 4-(3′-chloro-4′-fluoro-5-methoxy-2-methyl-[1,1′-biphenyl]-4-yl)-N-(pyrimidin-2-yl)quinazoline-7-sulfonamide]: the IC50 was 78 nM.

With `COc1cc(-c2cc(C)cc(C)c2)c(F)cc1-c1ncnc2cc(S(=O)(=O)Nc3ccon3)ccc12` [Example 536, 4-(2-fluoro-5-methoxy-3′,5′-dimethyl-4-biphenylyl)-N-3-isoxazolyl-7-quinazolinesulfonamide], the IC50 turned out to be 51 nM.

Regarding `CCc1nnc2cc(S(=O)(=O)Nc3ccon3)ccc2c1-c1cc(Cl)c(-c2cccc(F)c2)cc1OC` (atropisomer, axis not shown; (P)) [Example 444, (P)-4-(2-chloro-3′-fluoro-5-methoxy-[1,1′-biphenyl]-4-yl)-3-ethyl-N-(isoxazol-3-yl)cinnoline-7-sulfonamide], half-maximal inhibition (IC50) required 1160 nM.

`CCc1cnc2cc(S(=O)(=O)Nc3ccon3)ccc2c1-c1cc(Cl)c(-c2cccc(F)c2)cc1OC` (atropisomer, axis not shown; (M)) [Example 332, (M)-4-(2-chloro-3′-fluoro-5-methoxy-[1,1′-biphenyl]-4-yl)-3-ethyl-N-(isoxazol-3-yl)quinoline-7-sulfonamide]: the concentration for half-maximal inhibition (IC50) came out at 33700 nM.

On to `COc1cc(-c2cc(F)cc(C(F)F)c2)c(F)cc1-c1nccc2cc(S(=O)(=O)Nc3ccon3)ccc12` [Example 362, 1-(3′-(difluoromethyl)-2,5′-difluoro-5-methoxy-[1,1′-biphenyl]-4-yl)-N-(isoxazol-3-yl)isoquinoline-6-sulfonamide], for which the IC50 is 52 nM. This IC50 is about 650-fold lower than that of the compound before.

With `COc1cc(-c2cc(Cl)ccc2F)c(C)cc1-c1ncnc2cc(S(=O)(=O)Nc3ccon3)ccc12` [Example 557, 4-(5′-chloro-2′-fluoro-5-methoxy-2-methyl-4-biphenylyl)-N-3-isoxazolyl-7-quinazolinesulfonamide], the half-inhibitory concentration (IC50) was 56 nM. This IC50 and that of the compound before are within 1.5-fold of each other.

As to `COc1cc(-c2cccc(F)c2)c(Cl)cc1-c1c(C#N)cnc2cc(S(=O)(=O)Nc3ccon3)ccc12` (atropisomer, axis not shown; (M)) [Example 334, (M)-4-(2-chloro-3′-fluoro-5-methoxy-[1,1′-biphenyl]-4-yl)-3-cyano-N-(isoxazol-3-yl)quinoline-7-sulfonamide], the concentration for half-maximal inhibition (IC50) is 101 nM. This IC50 is about 1.8-fold higher than that of the compound before.

The compound `COc1cc(-c2cccc(Cl)c2)c(F)cc1-c1ncnc2cc(S(=O)(=O)Nc3ncccn3)ccc12` [Example 315, 4-(3′-chloro-2-fluoro-5-methoxy-4-biphenylyl)-N-2-pyrimidinyl-7-quinazolinesulfonamide] yielded an IC50 of 48 nM. This IC50 is about 2.1-fold lower than that of the compound before.

`COc1cc(-c2ccc3c(c2)CCC3)c(C)cc1-c1ncnc2cc(S(=O)(=O)Nc3ccon3)ccc12` [Example 566, 4-(4-(2,3-dihydro-1H-inden-5-yl)-2-methoxy-5-methylphenyl)-N-3-isoxazolyl-7-quinazolinesulfonamide] gave an IC50 of 169 nM.

The assay is the same for the next values; noted with them: PatchXpress (PX).
The compound `COc1cc(-c2cccc(F)c2)c(Cl)cc1-c1nnc(OC)c2cc(S(=O)(=O)Nc3ccon3)ccc12` [Example 55, 1-(2-CHLORO-3′-FLUORO-5-METHOXY-[1,1′-BIPHENYL]-4-YL)-N-(ISOXAZOL-3-YL)-4-METHOXYPHTHALAZINE-6-SULFONAMIDE] came in with a 50% inhibitory concentration (IC50) of 32.6 nM. In other words, the double-digit nanomolar range.

Compound `COc1cc(C(F)F)c(C2CC2)cc1-c1nccc2cc(S(=O)(=O)Nc3ccon3)ccc12` [Example 251, 1-(5-cyclopropyl-4-(difluoromethyl)-2-methoxyphenyl)-N-3-isoxazolyl-6-isoquinolinesulfonamide] registered a concentration for half-maximal inhibition (IC50) of 431 nM.

The compound `COc1cc(-c2cc(C)c(C)cc2C)c(C)cc1-c1ncnc2cc(S(=O)(=O)Nc3ccon3)ccc12` [Example 262, N-3-isoxazolyl-4-(5-methoxy-2,2′,4′,5′-tetramethyl-4-biphenylyl)-7-quinazolinesulfonamide] had a half-inhibitory concentration (IC50) of 62.5 nM. This IC50 lies about 6.9-fold lower than the previous one.

On to `COc1cc(-c2cc(C)c(C)cc2C)c(C)cc1-c1nccc2cc(S(=O)(=O)Nc3ccon3)ccc12` [Example 275, N-3-isoxazolyl-1-(5-methoxy-2,2′,4′,5′-tetramethyl-4-biphenylyl)-6-isoquinolinesulfonamide], for which the IC50 was determined as 242 nM.

Compound `COc1cc(-c2ccc(Cl)c(C)c2)c(C)cc1-c1nccc2cc(S(=O)(=O)Nc3ccon3)ccc12` [Example 253, 1-(4′-chloro-5-methoxy-2,3′-dimethyl-4-biphenylyl)-N-3-isoxazolyl-6-isoquinolinesulfonamide] showed a half-maximal inhibitory concentration (IC50) of 118 nM.

Compound `COc1cn(-c2cc(F)cc(F)c2)c(=O)cc1-c1nccc2cc(S(=O)(=O)Nc3ccon3)ccc12` [Example 56, 1-(1-(3,5-DIFLUOROPHENYL)-5-METHOXY-2-OXO-1,2-DIHYDROPYRIDIN-4-YL)-N-(ISOXAZOL-3-YL)ISOQUINOLINE-6-SULFONAMIDE] came in with an IC50 of 11800 nM. Compared with the last compound, the IC50 is about 100-fold higher.

Staying with this assay, now noted: in-vitro Nav 1.7 PX (PatchXpress).
For `COc1cc(-c2ccc(F)c(Cl)c2)c(C)cc1-c1nccc2cc(S(=O)(=O)Nc3ccon3)ccc12` [Example 284, 1-(3′-chloro-4′-fluoro-5-methoxy-2-methyl-4-biphenylyl)-N-3-isoxazolyl-6-isoquinolinesulfonamide], the 50% inhibitory concentration (IC50) was found to be 22.8 nM.

In turn, `COc1cc(-c2cc(F)cc(Cl)c2)c(Cl)cc1-c1ncnc2cc(S(=O)(=O)Nc3ccon3)ccc12` [Example 310, 4-(2,3′-dichloro-5′-fluoro-5-methoxy-4-biphenylyl)-N-3-isoxazolyl-7-quinazolinesulfonamide] showed an IC50 of 45 nM. Against the preceding compound, the IC50 is about 2-fold higher.

Compound `COc1ccc(Cl)cc1-c1cc(OC)c(-c2nccc3cc(S(=O)(=O)Nc4ccon4)ccc23)cc1C` [Example 281, 1-(5′-chloro-2′,5-dimethoxy-2-methyl-4-biphenylyl)-N-3-isoxazolyl-6-isoquinolinesulfonamide] had an IC50 of 16.4 nM.

In turn, `COc1ccc(F)cc1-c1cc(OC)c(-c2nccc3cc(S(=O)(=O)Nc4ccon4)ccc23)cc1C` [Example 280, 1-(5′-fluoro-2′,5-dimethoxy-2-methyl-4-biphenylyl)-N-3-isoxazolyl-6-isoquinolinesulfonamide] gave an IC50 of 60.3 nM.

The compound `COc1cc(-c2cc(C)cc(Cl)c2)c(C)cc1-c1nccc2cc(S(=O)(=O)Nc3ccon3)ccc12` [Example 283, 1-(3′-chloro-5-methoxy-2,5′-dimethyl-4-biphenylyl)-N-3-isoxazolyl-6-isoquinolinesulfonamide] displayed a half-maximal inhibitory concentration (IC50) of 37.5 nM. This IC50 is about 1.6-fold lower than that of the compound before.

For the origin of these results see US9776995B2, “Bicyclic sulfonamide compounds as sodium channel inhibitors” (AMGEN INC., priority 2013, dated 2017).
